Assay results: BindingDB's records for doi:10.1007/s10822-022-00478-x (Roche Innovation Center Basel, F. Hoffmann-La Roche Ltd., 2022)

biological target: cAMP and cAMP-inhibited cGMP 3',5'-cyclic phosphodiesterase 10A (Homo sapiens, UniProt Q9Y233); assay: PDE10A assay
Summary of the method: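 Human PDE10A (2 ng/well) preincubated 15 min RT with compound in HEPES pH 7.5, 10 mM MgCl2, BSA, then reacted 15 min with 50 nM [3H]cGMP/cGMP substrate. Stopped with Y-Si SPA beads; bound radioactivity counted, IC50 from four-parameter logistic, pIC50 = −log10(IC50).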

Row | IC50 [µM] | Compound
1 | 0.263 | COc1cccc(-c2cn3c(n2)C[C@H](NC(=O)c2c(C(=O)N(C)C)cnn2C)CC3)c1 [Roche-Dataset for PDE10A, Compound 230]
2 | 0.00734 | Cn1ncc(C(=O)N2CCC2)c1C(=O)Nc1ccn2cc(-c3cccc(OCCCF)c3)nc2n1 [Roche-Dataset for PDE10A, Compound 28]
3 | 0.021 | O=C(Nc1ccn(C2CCC2)n1)c1nc(C2CC2)ccc1Nc1cncnc1 [Roche-Dataset for PDE10A, Compound 695]
4 | 0.073 | Cc1c(Br)cn2nc(/C=C/c3nc(N4CCCC4)n(C)n3)nc2c1C [Roche-Dataset for PDE10A, Compound 364]
5 | 0.043 | Cn1cc(-c2ccccc2)nc1CCNC(=O)c1cccn2c(C3CC3)nnc12 [Roche-Dataset for PDE10A, Compound 92]
6 | 3.12 | CCN(CC)C(=O)c1c(C)noc1C(=O)Nc1ccn2nc(-c3ccccc3)nc2c1 [Roche-Dataset for PDE10A, Compound 258]
7 | 0.018 | Cc1noc(C(=O)Nc2ccc3cc(-c4ccccc4)nn3c2)c1Br [Roche-Dataset for PDE10A, Compound 529]
8 | 0.00033 | Cc1cc(Cl)c(C)n2nc(/C=C/c3nc(N4CCCC4)nn3C)nc12 [Roche-Dataset for PDE10A, Compound 300]
9 | 0.05 | O=C(Nc1ccn(CCO)n1)c1nc(C2CC2)ccc1Nc1cncnc1 [Roche-Dataset for PDE10A, Compound 597]
10 | 0.00489 | Cc1nn2ccc(CCc3nc(-c4ccccc4)cn3C)nc2c1C [US10399985, Example 16]
11 | 0.015 | CS(=O)(=O)Nc1cccc(NC(=O)c2nc(C3CC3)cnc2Nc2cncnc2)c1 [Roche-Dataset for PDE10A, Compound 900]
12 | 0.014 | COCCn1ccc(NC(=O)c2nc(C3CC3)ccc2Nc2cncnc2)n1 [Roche-Dataset for PDE10A, Compound 640]
13 | 0.00678 | CN(C)C(=O)c1nn(-c2ccccn2)cc1NC(=O)c1nc(C2CC2)ccc1Nc1cncnc1 [US8703768, 74]
14 | 1.27 | Cc1ncc(C)n2nc(CCc3nc(N4CCCOCC4)nn3C)nc12 [Roche-Dataset for PDE10A, Compound 984]
15 | 0.00064 | Cc1cc(C#Cc2nc(N3CCCC3)nn2C)nn2c(C)c(C(F)(F)F)nc12 [US9617271, 54]
16 | 0.444 | CN(C)C(=O)c1cc(NC(=O)c2nc(C3CC3)ccc2Nc2cncnc2)n(C)n1 [Roche-Dataset for PDE10A, Compound 404]
17 | 0.034 | CCOC(=O)c1cnn(C)c1C(=O)Nc1ccn2nc(-c3cccnc3)nc2c1 [Roche-Dataset for PDE10A, Compound 268]
18 | 7.81 | CNC(=O)c1c(NC(=O)c2nc(C)c(C)nc2Nc2cncnc2)cnn1C [Roche-Dataset for PDE10A, Compound 1099]
19 | 0.021 | Cn1cnc(C(=O)N2CCC2)c1C(=O)Nc1ccn2nc(-c3ccccc3)nc2c1 [Roche-Dataset for PDE10A, Compound 183]
20 | 0.15 | O=C(Nc1ccn2nc(-c3ccccc3)nc2c1)c1conc1C(=O)NC1CC1 [Roche-Dataset for PDE10A, Compound 437]
21 | 0.00415 | CN1CCC(n2nc(-c3ccccn3)cc2NC(=O)c2nc(C3CC3)ccc2Nc2cncnc2)CC1 [US8470820, 43]
22 | 0.307 | Cn1cc(-c2ccccc2)nc1CCc1cncc(-c2ccn[nH]2)n1 [Roche-Dataset for PDE10A, Compound 289]
23 | 0.00308 | Cc1oc(-c2ccccc2)nc1CCNC(=O)c1nc(C2CC2)cnc1Nc1cncnc1 [Roche-Dataset for PDE10A, Compound 202]
24 | 0.038 | O=C(NCc1cn2ccsc2n1)c1nc(C2CC2)cnc1Nc1cncnc1 [Roche-Dataset for PDE10A, Compound 838]

Row | IC50 [µM] | Compound
25 | 0.924 | Cc1cc(C)n2nc(/C=C/c3nc(N(C)C)nn3C)nc2n1 [Roche-Dataset for PDE10A, Compound 1144]
26 | 0.00036 | CN(C)C(=O)c1cnn(C)c1C(=O)Nc1ccc2[nH]c(-c3ccccc3)nc2c1 [Roche-Dataset for PDE10A, Compound 195]
27 | 0.314 | CCOC(=O)c1cnn(C)c1C(=O)Nc1ccn2nc(N(C)C)nc2c1 [Roche-Dataset for PDE10A, Compound 549]
28 | 4.67 | Cc1ccc(C(=O)Nc2ccn3nc(-c4ccccc4)nc3c2)cn1 [Roche-Dataset for PDE10A, Compound 684]
29 | 9.27 | Cc1cccc(CCc2nc(-c3ccccc3)cn2C)n1 [Roche-Dataset for PDE10A, Compound 328]
30 | 0.045 | Cc1ncc(C)n2nc(/C=C/c3nc(N4CC[C@H](C)C4)nn3C)nc12 [Roche-Dataset for PDE10A, Compound 566]
31 | 0.624 | Cn1ncc(C(=O)N2CCOCC2)c1C(=O)N[C@H]1CCn2cc(-c3ccc(F)cc3)nc2C1 [Roche-Dataset for PDE10A, Compound 938]
32 | 1.53 | Cn1ncc(C(=O)NCc2nc3ccccc3[nH]2)c1C(=O)Nc1ccn2cc(-c3ccccc3)nc2n1 [Roche-Dataset for PDE10A, Compound 1153]
33 | 0.051 | CNC(=O)c1cc2[nH]c(-c3ccccc3)nc2cc1NC(=O)c1oc(COCc2ccccc2)nc1C [Roche-Dataset for PDE10A, Compound 152]
34 | 0.00701 | Cc1ncc(C(C)C)c2nc(CCc3nc(N4CCCC4)nn3C)nn12 [Roche-Dataset for PDE10A, Compound 672]
35 | 0.156 | O=C(Nc1ccn(CC(F)(F)F)n1)c1nc(Cl)ccc1Nc1cncnc1 [Roche-Dataset for PDE10A, Compound 859]
36 | 0.00771 | Cn1cc(-c2ccccc2)nc1COc1nc2ccccc2nc1N1CCCC1 [Roche-Dataset for PDE10A, Compound 403]
37 | 0.039 | CN(C)c1nc2cc(NC(=O)c3c(C(=O)N4CCOCC4)cnn3C)ccn2n1 [Roche-Dataset for PDE10A, Compound 568]
38 | 0.00141 | O=C(Nc1cc(-c2ccccn2)nn1C1CCOCC1)c1nc(C2CC2)ccc1Nc1cncnc1 [Roche-Dataset for PDE10A, Compound 24]
39 | 0.075 | Cc1cc(NC(=O)c2ccc3cc(-c4ccccc4)nn3c2)cc(C)n1 [Roche-Dataset for PDE10A, Compound 286]
40 | 0.00222 | Cn1ncc(C(=O)N2CCC2)c1C(=O)N[C@@H]1CCn2cc(-c3ccccc3Cl)nc2C1 [Roche-Dataset for PDE10A, Compound 408]
41 | 0.019 | CNC(=O)c1c(NC(=O)c2nc(C3CC3)cnc2Nc2cncnc2)cnn1CCC(F)(F)F [US8703768, 173]
42 | 0.029 | CN(C)CCn1ccc(NC(=O)c2nc(C3CC3)cnc2Nc2cncnc2)n1 [Roche-Dataset for PDE10A, Compound 828]
43 | 0.00727 | CCc1nc(C)c(C(=O)Nc2cc3nc(-c4ccccc4)[nH]c3cc2C(=O)NCC2(CO)COC2)o1 [Roche-Dataset for PDE10A, Compound 163]
44 | 0.00506 | Cc1ccc2nc(Cl)c(OCc3nc(-c4ccccc4)cn3C)nc2c1 [Roche-Dataset for PDE10A, Compound 540]
45 | 0.025 | Cn1ncc(C(=O)O)c1C(=O)Nc1ccn2nc(-c3cccc(F)c3)nc2c1 [Roche-Dataset for PDE10A, Compound 380]
46 | 0.018 | O=C(Nc1ccn(S(=O)(=O)C(F)(F)F)n1)c1nc(C2CC2)ccc1Nc1cncnc1 [Roche-Dataset for PDE10A, Compound 635]
47 | 1.23 | O=C(Nc1ccnc(Cl)n1)c1cn(-c2ccc3ccccc3n2)cn1 [Roche-Dataset for PDE10A, Compound 627]
